According to publication PMC7863742, “Sensitive Fluorescence Assay for the Detection of Alkaline Phosphatase Based on a Cu^2+-Thiamine System” (Sensors (Basel, Switzerland), 2021):

Target: Alkaline phosphatase (ALP)
Test: Cu2+-thiamine fluorescence assay of ALP hydrolysis of ascorbic acid 2-phosphate
Format: biochemical

Structure (SMILES): [O]=[V]([OH])([OH])[OH] [Na3VO4]
- IC50: 262 µM
